According to patent US4265901A, “2-Oxybenzimidazoline compounds” (priority 1979, dated 1981):
Structures can show the parent of a compound that is named as a salt.

Columns and labels:
[1] = tested on: Cotton; test: Pre-emergence herbicide test, cotton; assay type: in vivo
Experimental: (§1) In this evaluation, each compound to be tested was dissolved in a 1:1 mixture of acetone and ethanol containing a small amount of Toximul R and Toximul S (each a sulfonate/nonionic blend produced by Stepan Chemical Company, Northfield, Illinois). The solution was then diluted with deionized water to a composition of the following concentrations, by weight: Plant species used as indicators of herbicidal activity were planted in galvanized pans (flats) 31.5 cm. long, 21.5 cm. wide, and 8.0 cm. deep. The bottoms of the flats had holes to facilitate drainage. The soil used was a 1:1 ratio by volume of masonry sand and shredded top soil. Flats that were to receive preemergence treatments were planted one day prior to, or on the same day treatments were applied. Flats that were to receive postemergence treatments were planted 9 days prior to treatment and placed in a growth chamber until the day of treatment. In the growth chamber, flats received 12 to 18 hours of light per day and were subject to temperatures of 75° to 85° F. The formulated test compound was applied uniformly to the indicator species with a modified DeVilbiss atomizer using air pressure of 3 to 5 psi. Each flat received 12.5 ml. of spray solution which was equal to 200 gallons/acre total spray volume. Plants were maintained in a greenhouse after treatment. Herbicidal effects of chemicals were evaluated by two injury rating systems 18 days after preemergence applications and 14 days after postemergence applications. The degree of plant injury was based on a 1 to 5 scale and a single numerical rating was assigned to each test species as follows: […]

[2] = tested on: Soybean; test: Pre-emergence herbicide test, soybean; assay type: in vivo
Experimental: as §1

[3] = tested on: Wheat; test: Pre-emergence herbicide test, wheat; assay type: in vivo
Experimental: as §1

[4] = tested on: Alfalfa; test: Pre-emergence herbicide test, alfalfa; assay type: in vivo
Experimental: as §1

[5] = tested on: Rice; test: Pre-emergence herbicide test, rice; assay type: in vivo
Experimental: as §1

[6] = tested on: Barnyard Grass; test: Pre-emergence herbicide test, barnyard grass; assay type: in vivo
Experimental: as §1

[7] = tested on: Lambsquarter; test: Pre-emergence herbicide test, lambsquarter; assay type: in vivo
Experimental: as §1

[8] = tested on: Wild Oat; test: Pre-emergence herbicide test, wild oat; assay type: in vivo
Experimental: as §1

[9] = tested on: Jimsonweed; test: Pre-emergence herbicide test, jimsonweed; assay type: in vivo
Experimental: as §1

[10] = tested on: housefly; test: House fly contact test; as to all read-outs here: ranges in brackets are in %; assay type: in vivo, Musca domestica; settings: 1000 ppm; for Housefly Kd. (knockdown rating): 2 hours; for Housefly Cont. (mortality rating): 24 hours
Experimental: In this evaluation, each compound to be tested was dissolved in a 1:1 mixture of acetone and ethanol containing a small amount of Toximul R and Toximul S (each a sulfonate/nonionic blend produced by Stephan Chemical Company, Northfield, Ill.). The solution was then diluted with distilled water to a concentration of 1000 ppm of test compound. Lesser concentration formulations were made by diluting a portion of the 1000 ppm solution with distilled water containing 225 mg. of Toximul R and 125 mg. of Toximul S per liter.
This test was conducted with 4-day-old adults of Musca domestica (Linne), Order Diptera, Family Muscidae.
Rearing cages of 4-day-old adult house flies were placed in a cold room and held for one hour at 35° to 40° F. to chill so that the flies could be transferred to test cages. Approximately 100 flies were transferred to each test cage using a small scoop. The stainless steel test cages were five inches in diameter and one and three-fourths inches deep with a stainless steel screen bottom and screened removable friction fitting lid. The small hole on the side of the cage was kept stoppered except when a wick was inserted for feeding and watering.
Each cage was sprayed with 5 ml. of the test formulation containing 1000 ppm. of the test compound, using a DeVilbiss atomizer supplied with 5 psi air pressure. The nozzle was 33 inches from the top of the cage. After spraying, cages were allowed to dry.
Knockdown counts were made two hours after spraying and then the flies were fed and watered by inserting a four-inch wick of Fibre Flex Supreme, unbleached (16/32"), (manufactured by Sackner Products, Inc., Grand Rapids, Mich.) in the hole on the side of the cage. The cage was placed so that the wick hung down into a pan of five percent sugar solution in water.
One replicate was run for each test compound. One unsprayed cage was held as a control, one cage was sprayed as a negative control, and one cage was sprayed with a formulation containing 50 ppm. (0.005%) DDT as a reference standard.
Mortality counts were made 24 hours after spraying. The cage was rapped lightly. […] Moribund flies were counted as dead.

[11] = tested on: blowfly larvae; test: Blowfly larvae fed on serum of dosed guinea pigs; assay type: in vivo, Phormia regina; settings: guinea pig, serum at 24 hours
Experimental: Representative compounds of the present invention were evaluated against larvae of blowfly (Phormia regina) and against adult housefly (Musca domestica). In these evaluations, the candidate compound was administered to each of two male guinea pigs weighing from about 400 grams to about 1000 grams. Administration was via the intraperitoneal route, the compound having been formulated in sesame oil. At twenty-four hours following administration of the compound, blood was withdrawn from the guinea pigs. The serum portion was isolated and blowfly larvae and adult houseflies were fed on the serum. For the blowfly assay, 10 ml. of serum were placed in a test tube with a wick onto which 50 blowfly larvae were placed. The covered test tube was incubated at 27° C. for 24 hours, at which time efficacy of the candidate compound was determined as the percent mortality of the blowfly larvae, adjusted by normal mortality in a control, and reported according to the following rating scale:
Percent mortality was determined separately for each guinea pig.

## O=[N+]([O-])c1cc(C(F)(F)F)cc2c1NC(O)(C(F)(F)C(F)F)N2 (centres unmarked) [Example 2, 2-Hydroxy-2-(1,1,2,2-Tetrafluoroethyl)-4-Nitro-6-(Trifluoromethyl)Benzimidazoline, Sodium Salt, and Hydrate]
[1]; 1/2 lb/A
  plant injury rating: 1 (no injury)
[1]; 1/4 lb/A
  plant injury rating: 1 (no injury)
[1]; 2 lb/A
  plant injury rating: 1 (no injury)
[1]; 4 lb/A
  plant injury rating: 2B
[2]; 1/2 lb/A
  plant injury rating: 1 (no injury)
[2]; 1/4 lb/A
  plant injury rating: 1 (no injury)
[2]; 1 lb/A
  plant injury rating: 1 (no injury)
[2]; 2 lb/A
  plant injury rating: 1 (no injury)
[2]; 4 lb/A
  plant injury rating: 2B
[3]; 1/2 lb/A
  plant injury rating: 1 (no injury)
[3]; 1/4 lb/A
  plant injury rating: 1 (no injury)
[3]; 1 lb/A
  plant injury rating: 1 (no injury)
[3]; 2 lb/A
  plant injury rating: 1 (no injury)
[3]; 4 lb/A
  plant injury rating: 3BS
[4]; 1/2 lb/A
  plant injury rating: 3SR
[4]; 1/4 lb/A
  plant injury rating: 1 (no injury)
[4]; 2 lb/A
  plant injury rating: 5D
[4]; 4 lb/A
  plant injury rating: 5N
[5]; 1/2 lb/A
  plant injury rating: 1 (no injury)
[5]; 1/4 lb/A
  plant injury rating: 1 (no injury)
[5]; 1 lb/A
  plant injury rating: 1 (no injury)
[5]; 2 lb/A
  plant injury rating: 2S
[5]; 4 lb/A
  plant injury rating: 2SB
[6]; 1/2 lb/A
  plant injury rating: 1 (no injury)
[6]; 1/4 lb/A
  plant injury rating: 1 (no injury)
[6]; 2 lb/A
  plant injury rating: 1 (no injury)
[6]; 4 lb/A
  plant injury rating: 2BS
[7]; 1/2 lb/A
  plant injury rating: 2S
[7]; 1/4 lb/A
  plant injury rating: 1 (no injury)
[7]; 2 lb/A
  plant injury rating: 5D
[7]; 4 lb/A
  plant injury rating: 5D
[8]; 1/2 lb/A
  plant injury rating: 1 (no injury)
[8]; 1/4 lb/A
  plant injury rating: 1 (no injury)
[8]; 1 lb/A
  plant injury rating: 1 (no injury)
[8]; 2 lb/A
  plant injury rating: 2 (slight injury)
[8]; 4 lb/A
  plant injury rating: 5 (death)
[9]; 1/2 lb/A
  plant injury rating: 1 (no injury)
[9]; 1/4 lb/A
  plant injury rating: 1 (no injury)
[9]; 1 lb/A
  plant injury rating: 1 (no injury)
[9]; 2 lb/A
  plant injury rating: 3BS
[9]; 4 lb/A
  plant injury rating: 5D
[10]
  Housefly Kd. (knockdown rating): 1 (1-50)
  Housefly Cont. (mortality rating): 3 (100)

## O=[N+]([O-])c1cc(Cl)cc2c1NC(O)(C(F)F)N2 (centres unmarked) [Example 5, 2-Hydroxy-2-(Difluoromethyl)-4-Nitro-6-Chlorobenzimidazoline, Calcium Salt]
[11]; 1 mg./kg. i.p.
  Efficacy Rating, Blowfly Larvae: 0 (none dead)
[11]; 5 mg./kg. i.p.
  Efficacy Rating, Blowfly Larvae: 0 (none dead)

## O=[N+]([O-])c1cc(C(F)(F)F)cc2c1NC(O)(C(F)(F)C(F)F)N2O (centres unmarked) [Example 12, 1,2-Dihydroxy-2-(1,1,2,2-Tetrafluoroethyl)-4-Nitro-6-(Trifluoromethyl)Benzimidazoline]
[1]; 1/2 lb/A
  plant injury rating: 1 (no injury)
[1]; 1 lb/A
  plant injury rating: 1 (no injury)
[1]; 2 lb/A
  plant injury rating: 1 (no injury)
[2]; 1/2 lb/A
  plant injury rating: 1 (no injury)
[2]; 1 lb/A
  plant injury rating: 1 (no injury)
[2]; 2 lb/A
  plant injury rating: 1 (no injury)
[3]; 1/2 lb/A
  plant injury rating: 1 (no injury)
[3]; 1 lb/A
  plant injury rating: 1 (no injury)
[3]; 2 lb/A
  plant injury rating: 1 (no injury)
[4]; 1/2 lb/A
  plant injury rating: 1 (no injury)
[4]; 1 lb/A
  plant injury rating: 1 (no injury)
[4]; 2 lb/A
  plant injury rating: 3SB
[5]; 1/2 lb/A
  plant injury rating: 1 (no injury)
[5]; 1 lb/A
  plant injury rating: 1 (no injury)
[5]; 2 lb/A
  plant injury rating: 1 (no injury)
[6]; 1/2 lb/A
  plant injury rating: 1 (no injury)
[6]; 1 lb/A
  plant injury rating: 1 (no injury)
[6]; 2 lb/A
  plant injury rating: 1 (no injury)
[7]; 1/2 lb/A
  plant injury rating: 1 (no injury)
[7]; 1 lb/A
  plant injury rating: 3SB
[7]; 2 lb/A
  plant injury rating: 3S
[8]; 1/2 lb/A
  plant injury rating: 1 (no injury)
[8]; 1 lb/A
  plant injury rating: 1 (no injury)
[8]; 2 lb/A
  plant injury rating: 2B
[9]; 1/2 lb/A
  plant injury rating: 1 (no injury)
[9]; 1 lb/A
  plant injury rating: 1 (no injury)
[9]; 2 lb/A
  plant injury rating: 1 (no injury)
[10]
  Housefly Kd. (knockdown rating): 0 (0)
  Housefly Cont. (mortality rating): 2 (51-99)
